In patent US20250034171A1, “IMIDAZOPYRIDINE AMIDES AND RELATED COMPOUNDS FOR USE IN THE TREATMENT OF BACTERIAL INFECTIONS” (priority 2021, published 2025):
Values after ≈ are worked out from the molar mass of the structure shown. Where two headings read alike, the source gives them in different places.

Key:
[1] = system: Mycobacterium tuberculosis strain H37Rv; assay: Test 2: MIC determination against M. tuberculosis, resazurin fluorescence; assay type: cell-based; settings: Test 2, M. tuberculosis H37Rv; for MIC90: read-out: Bacterial activity MIC90; for IC50: read-out: Bacterial activity pMIC50 (converted)
[2] = system: Salmonella typhimurium Ames II Mixed Strains (TA7001-TA7006) and TA98; assay: Genotoxicity assay (AmesIIb mutagenicity test); assay type: cell-based; also: key: an AmesIIb score of 1 shows no genotoxicity signals
Excerpt: The aim is to evaluate compounds (and/or their metabolites) for their ability to induce reverse mutations in a gene of histidine-requiring Salmonella typhimurium strains to produce histidine-independent strains of these bacteria, in the absence and in the presence of a mammalian metabolic activation system.
Point mutations were made in the histidine (His) operon in Salmonella typhimurium, rendering the bacteria incapable of producing histidine. These single base substitutions are positioned at strategic points within the His gene, resulting in his-organisms that cannot grow unless histidine is supplied. When a mutagenic event occurs, base substitutions within the His gene then cause the reversion of the his-Ames II™ strains to His.
A chemical's mutagenic potential is assessed by exposing these his-organisms to varying concentrations of chemical and selecting for the reversion event. Medium lacking histidine is used for this selection which allows only those cells that have undergone the his- to His reversion to survive and grow.
The assay may be performed using a kit and instructions from Xenometric. The two strains provided in the Xenometric kit are the Ames II™ Mixed Strains and TA98. The Ames II™ Mixed Strains contains an equimolar mixture of the Ames II™ TA7001-TA7006 strains. Individually, these strains are designed to revert by only one specific base-pair substitution out of six possible changes. Thus, when mixed, all six base substitution mutations can be represented in one culture. This kit also contains TA98 for the detection of frameshift mutations.

[3] = Metabolic stability in liver microsomes (intrinsic clearance); assay type: in vitro ADME; settings: microsomes
Experimental: The test compound was incubated under the generic condition (0.5 mg/ml microsomal protein, 1 mM NADPH, 1 mM MgCl2, and 0.1 M phosphate buffer, pH 7.4, 37° C.) at a defined substrate concentration (typically 1 μM) in liver microsomes of selected species across a time course (typically 0, 5, 10, 20, 40 and 60 minutes) at Cyprotex (Cheshire, UK). The liver microsomes, buffer and test compound will be pre-incubated for 5 minutes. The addition of the co-factor NADPH will initiate the reaction and the reaction was terminated by addition of acetonitrile. The samples were centrifuged prior to analysis by LC-MS/MS analysis. The relative amount of parent compound remaining in the active incubations vs. the control incubations (t=0 mins) for each compound was measured by peak area comparison. The in vitro metabolic half-life (t1/2) was calculated using the slope of the log-linear regression from the percentage parent compound remaining versus time relationship (κ), The in vitro intrinsic clearance (Cl^int) (μl/min/mg microsomal protein) was calculated using the in vitro metabolic half-life, incubation volume and the weight of microsomal protein in the incubation.

[4] = Mycobacterium tuberculosis, H37RV
[5] = mouse, pH 7.4, Metabolic Stability Half life (mouse, min.)
[6] = mouse, pH 7.4, mouse liver microsomes, read-out: Metabolic Stability (liver microsome intrinsic clearance) Clearance (mouse, μl/min./mg protein)
[7] = human, pH 7.4, Metabolic Stability Half life (human, min.)
[8] = human, pH 7.4, human liver microsomes, read-out: Metabolic Stability (liver microsome intrinsic clearance) Clearance (human, μl/min./mg protein)

## O=C(NCc1ccc(-c2nc3n(n2)CCC(C(F)(F)F)C3)cc1)c1c(C(F)(F)F)nc2ncccn12 (single isomer, unassigned) [Compound 2a]
[1]
  Bacterial activity pMIC50: 7.648
  MIC90: 0.086 µM (≈ 0.0438 µg/mL)
[2]
  GeneTox AmesIIb Score: 1
[3]; human
  Metabolic Stability (liver microsome intrinsic clearance) Clearance (human, μl/min./mg protein): <7.7 μl/min./mg protein
  Metabolic Stability Half life (human, min.): >3 h
[3]; mouse
  Metabolic Stability (liver microsome intrinsic clearance) Clearance (mouse, μl/min./mg protein): 11.4 μl/min./mg protein
  Metabolic Stability Half life (mouse, min.): 2.02 h

## O=C(NCc1ccc(-c2nc3n(n2)CCC(C(F)(F)F)C3)cc1)c1c(C(F)(F)F)nc2ncccn12 (single isomer, unassigned) [Compound 2b]
[1]
  Bacterial activity pMIC50: 7.502
  MIC90: 0.098 µM (≈ 0.0499 µg/mL)
[2]
  GeneTox AmesIIb Score: 1
[3]; human
  Metabolic Stability (liver microsome intrinsic clearance) Clearance (human, μl/min./mg protein): <7.7 μl/min./mg protein
  Metabolic Stability Half life (human, min.): >3 h
[3]; mouse
  Metabolic Stability (liver microsome intrinsic clearance) Clearance (mouse, μl/min./mg protein): 12.3 μl/min./mg protein
  Metabolic Stability Half life (mouse, min.): 1.87 h

## CCc1nc2ncc(C)cn2c1C(=O)NCc1ccc(-c2cn3c(n2)CC(C(F)(F)F)CC3)cc1 (single isomer, unassigned) [Compound 3b]
[1]
  Bacterial activity pMIC50: 8.483
  MIC90: 0.010 µM (≈ 0.00483 µg/mL)
[2]
  GeneTox AmesIIb Score: 1
[3]; human
  Metabolic Stability (liver microsome intrinsic clearance) Clearance (human, μl/min./mg protein): 26.1 μl/min./mg protein
  Metabolic Stability Half life (human, min.): 0.887 h
[3]; mouse
  Metabolic Stability (liver microsome intrinsic clearance) Clearance (mouse, μl/min./mg protein): 23.8 μl/min./mg protein
  Metabolic Stability Half life (mouse, min.): 0.972 h

## CCc1nc2nc(C)ccn2c1C(=O)NCc1ccc(-c2nc3n(n2)CCC(C(F)(F)F)C3)cc1 (stereo not drawn) [Compound 5b]
[1]
  Bacterial activity pMIC50: 7.873
  MIC90: 0.044 µM (≈ 0.0213 µg/mL)
[2]
  GeneTox AmesIIb Score: 1
[3]; mouse
  Metabolic Stability (liver microsome intrinsic clearance) Clearance (mouse, μl/min./mg protein): <7.7 μl/min./mg protein
  Metabolic Stability Half life (mouse, min.): >3 h

## CCc1nc2ncc(C)cn2c1C(=O)NCc1ccc(-c2nc3n(n2)CCC(C(F)(F)F)C3)c(C)n1 (stereo not drawn) [Compound 37]
[1]; [4]
  MIC90: 0.0035 µM (≈ 0.00174 µg/mL)
  IC50: 12600 pM
[2]; Salmonella typhimurium
  GeneTox AmesIIb Score: 1
[3]; [5]
  half-life at 1 µM: > 2.8 h
[3]; [6]
  microsomal CLint at 1 µM: < 7.7 µL/min/mg

## CCc1nc2ncc(C)cn2c1C(=O)NCc1cc(C)c(-c2nc3n(n2)CCC(C(F)(F)F)C3)cn1 (stereo not drawn) [Compound 38]
[1]; [4]
  MIC90: 0.052 µM (≈ 0.0259 µg/mL)
  IC50: 17000 pM
[2]; Salmonella typhimurium
  GeneTox AmesIIb Score: 1
[3]; [5]
  half-life at 1 µM: > 3 h
[3]; [6]
  microsomal CLint at 1 µM: < 7.7 µL/min/mg

## CCc1nc2ncc(C)cn2c1C(=O)NCc1ccc(-c2nc3n(n2)CCC(C(F)(F)F)C3)cn1 (stereo not drawn) [Compound 39]
[1]; [4]
  MIC90: 0.16 µM (≈ 0.0775 µg/mL)
  IC50: 49000 pM
[2]; Salmonella typhimurium
  GeneTox AmesIIb Score: 1
[3]; [5]
  half-life at 1 µM: > 3 h
[3]; [6]
  microsomal CLint at 1 µM: < 7.7 µL/min/mg

## CCc1nc2ccc(F)cn2c1C(=O)NCc1ccc(-c2nc3n(n2)CC[C@H](C(F)(F)F)C3)cc1 [Compound 50]
[1]; [4]
  MIC90: 0.11 µM (≈ 0.0535 µg/mL)
  IC50: 28200 pM
[2]; Salmonella typhimurium
  GeneTox AmesIIb Score: 1
[3]; [5]
  half-life at 1 µM: 1.97 h
[3]; [6]
  microsomal CLint at 1 µM: 11.7 µL/min/mg

## [2H]C([2H])([2H])c1cnc2nc(CC)c(C(=O)NCc3ccc(-c4nc5n(n4)CC[C@H](C(F)(F)F)C5)cc3)n2c1 [Compound 51]
[1]; [4]
  MIC90: 0.008 µM (≈ 0.00389 µg/mL)
  IC50: 3160 pM
[2]; Salmonella typhimurium
  GeneTox AmesIIb Score: 1
[3]; [5]
  half-life at 1 µM: > 3 h
[3]; [6]
  microsomal CLint at 1 µM: < 7.7 µL/min/mg

## CCc1cnc2nc(CC)c(C(=O)NCc3ccc(-c4nc5n(n4)CC[C@@H](C(F)(F)F)C5)cc3)n2c1 [Compound 59]
[1]; [4]
  MIC90: 0.061 µM (≈ 0.0303 µg/mL)
  IC50: 17800 pM
[2]; Salmonella typhimurium
  GeneTox AmesIIb Score: 1
[3]; [7]
  half-life at 1 µM: 0.0667 h
[3]; [8]
  microsomal CLint at 1 µM: 347 µL/min/mg
[3]; [5]
  half-life at 1 µM: 0.39 h
[3]; [6]
  microsomal CLint at 1 µM: 59.4 µL/min/mg

## CCc1cnc2nc(CC)c(C(=O)NCc3ccc(-c4nc5n(n4)CC[C@H](C(F)(F)F)C5)cc3)n2c1 [Compound 62]
[1]; [4]
  MIC90: 0.033 µM (≈ 0.0164 µg/mL)
  IC50: 11000 pM
[2]; Salmonella typhimurium
  GeneTox AmesIIb Score: 1
[3]; [7]
  half-life at 1 µM: 0.0783 h
[3]; [8]
  microsomal CLint at 1 µM: 294 µL/min/mg
[3]; [5]
  half-life at 1 µM: 0.4 h
[3]; [6]
  microsomal CLint at 1 µM: 57.8 µL/min/mg

## CCc1nc2ncc(C)cn2c1C(=O)NCc1ccc(-c2cn3c(n2)CC(C)CC3)cc1 (stereo not drawn) [Compound 89]
[1]; [4]
  MIC90: 0.046 µM (≈ 0.0197 µg/mL)
  IC50: 14100 pM
[2]; Salmonella typhimurium
  GeneTox AmesIIb Score: 1
[3]; [5]
  half-life at 1 µM: > 3 h
[3]; [6]
  microsomal CLint at 1 µM: < 7.7 µL/min/mg

## CCc1nc2nc(C)ccn2c1C(=O)NCc1ccc(-c2cn3c(n2)CC(C)CC3)cc1 (stereo not drawn) [Compound 91]
[1]; [4]
  MIC90: 0.48 µM (≈ 0.206 µg/mL)
  IC50: 191000 pM
[2]; Salmonella typhimurium
  GeneTox AmesIIb Score: 1
[3]; [5]
  half-life at 1 µM: > 3 h
[3]; [6]
  microsomal CLint at 1 µM: < 7.7 µL/min/mg

## CCc1nc2ncc(C)cn2c1C(=O)NCc1ccc(-c2cc3n(n2)CCCC3)cc1 [Compound 95]
[1]; [4]
  MIC90: 0.011 µM (≈ 0.00456 µg/mL)
  IC50: 3630 pM
[2]; Salmonella typhimurium
  GeneTox AmesIIb Score: 1
[3]; [7]
  half-life at 1 µM: > 9.33 h
[3]; [8]
  microsomal CLint at 1 µM: < 1.2 µL/min/mg
[3]; [5]
  half-life at 1 µM: 0.978 h
[3]; [6]
  microsomal CLint at 1 µM: 0.012 µL/min/mg

## CCc1nc2ncc(C)cn2c1C(=O)NCc1ccc(-c2nc3n(n2)CCC(COC)C3)cc1 (stereo not drawn) [Compound 102]
[1]; [4]
  MIC90: 0.058 µM (≈ 0.0267 µg/mL)
  IC50: 25700 pM
[2]; Salmonella typhimurium
  GeneTox AmesIIb Score: 1
[3]; [5]
  half-life at 1 µM: > 3 h
[3]; [6]
  microsomal CLint at 1 µM: < 7.7 µL/min/mg

## CCc1nc2ncc(C)cn2c1C(=O)NCc1ccc(-c2nc3n(n2)CCC(C(C)(F)F)C3)c(F)c1 (stereo not drawn) [Compound 106]
[1]; [4]
  MIC90: 0.03 µM (≈ 0.0149 µg/mL)
  IC50: 12000 pM
[2]; Salmonella typhimurium
  GeneTox AmesIIb Score: 1
[3]; [5]
  half-life at 1 µM: 1.92 h
[3]; [6]
  microsomal CLint at 1 µM: 12.1 µL/min/mg

## CCc1nc2cc(F)ccn2c1C(=O)NCc1ccc(-c2nc3n(n2)CCCC3)cc1 [Compound 120]
[1]; [4]
  MIC90: 0.042 µM (≈ 0.0176 µg/mL)
  IC50: 14500 pM
[2]; Salmonella typhimurium
  GeneTox AmesIIb Score: 1
[3]; [5]
  half-life at 1 µM: 1.61 h
[3]; [6]
  microsomal CLint at 1 µM: 14.4 µL/min/mg

## CCc1nc2ncc(C)cn2c1C(=O)NCc1ccc(-c2nc3n(n2)CCC(C)(C)C3)cc1 [Compound 144]
[1]; [4]
  MIC90: 0.05 µM (≈ 0.0222 µg/mL)
  IC50: 12600 pM
[2]; Salmonella typhimurium
  GeneTox AmesIIb Score: 1
[3]; [5]
  half-life at 1 µM: > 3 h
[3]; [6]
  microsomal CLint at 1 µM: < 7.7 µL/min/mg
